Measurements published in patent US4212939A, “Substrate solution for carboxylic ester hydrolase determination” (The University of Alabama, priority 1977, dated 1980).
Blank lines part the entries; values can stand above or below the molecule they belong to.

Columns and labels:
[1] = biological target: T1, porcine pancreatic lipase (Sus scrofa, UniProt P00591); assay: Activation of ester hydrolase in the vinyl ester reagent system (ADH/NADH coupled, 340 nm); type: biochemical; details: for activation of porcine pancreatic lipase by bile salt: vinyl omega-phenyl octanoate as substrate, sodium taurodeoxycholate zero to 25 mM, sodium cholate zero to 10 mM, sodium chenodeoxycholate zero to 15 mM; for activation of porcine pancreatic lipase by quaternary ammonium compound: in the absence of bile salts
T1 sequence (P00591 1-450): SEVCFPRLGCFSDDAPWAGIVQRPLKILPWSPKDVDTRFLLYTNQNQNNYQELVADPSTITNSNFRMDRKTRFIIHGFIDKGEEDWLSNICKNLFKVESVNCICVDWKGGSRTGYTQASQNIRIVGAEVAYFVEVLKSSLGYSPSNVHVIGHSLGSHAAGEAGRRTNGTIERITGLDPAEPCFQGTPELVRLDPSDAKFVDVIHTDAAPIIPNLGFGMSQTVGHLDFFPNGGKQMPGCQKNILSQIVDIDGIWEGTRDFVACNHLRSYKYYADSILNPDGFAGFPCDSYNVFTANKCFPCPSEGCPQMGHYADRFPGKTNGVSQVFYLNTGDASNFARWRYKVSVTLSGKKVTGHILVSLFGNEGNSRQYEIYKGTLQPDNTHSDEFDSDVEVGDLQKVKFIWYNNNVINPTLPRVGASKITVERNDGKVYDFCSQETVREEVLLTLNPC
Text: (§1) In accordance with the preferred embodiments of this invention, we prefer to carry out the analysis of carboxylic acid ester hydrolase by admixing an unknown, suspected of containing this enzyme with a reagent system wherein first a vinyl ester of a carboxylic acid is hydrolyzed by the enzyme into the carboxylic acid and unstable vinyl alcohol. As a second step, the vinyl alcohol isomerizes to acetaldehyde. This sequence of conversions is indicated diagrammatically as follows: [drawing 1] The acetaldehyde of reaction (2) may be detected by a variety of means known to the prior art. For example, enzymatic methods are illustrated below in reactions (3a) and (3b), and involve monitoring the disappearance (3a) or appearance (3b) of NADH by measuring its absorbance or fluorescence at suitable wavelengths. The velocity of reactions (3a) or (3b) may then be equated with reaction (1) when the components of the mixture are all in sufficient excess so that only the ester hydrolase activity is limiting. Chemical methods (3c) may include any nonenzymatic means for the quantitative analysis of acetaldehyde. [formula]
(§2) The range of concentrations of sodium deoxycholate (or its free acid) is from zero to about 25 mM, but the preferred range is about 15 to 21 mM for porcine pancreatic lipase, crude human pancreas extract, and lipase in human blood serum.
Activation of porcine pancreatic lipase and crude human pancreas extract can also be accomplished with various cationic alkyl and alkyl-aryl quaternary ammonium compounds such as cetyltrimethyl ammonium bromide (CTAB) and cetyldimethylbenzyl ammonium chloride (CDMBAC) in the absence of bile salts. The useful range of CTAB concentrations for activation of porcine pancreatic lipase is from about 4 to 12 mM, but most preferred is from 7 to 9 mM. The useful range of CDMBAC concentrations for activation of porcine pancreatic lipase is from about 2 to 9 mM, but most preferred is about 5 to 9 mM. When used together sodium deoxycholate (or its acid) and either CTAB or CDMBAC activate porcine pancreatic lipase about 10 fold over the activity without these components together. Sodium deoxycholate and CTAB are useful when used together in the ranges of zero to 25 mM and zero to 15 mM, respectively, but the preferred concentrations are 10 mM to 20 mM sodium deoxycholate and 4 mM to 10 mM CTAB. When deoxycholate and CDMBAC are used together for the activation of porcine pancreatic lipase the useful concentrations of deoxycholate are from zero to about 20 mM, but the preferred concentrations are 10 mM to 20 mM deoxycholate and 10 mM to 15 mM CDMBAC.
(2) Buffer Solution. While the method of preparation of the buffer solution is not critical, one method for forming it is as follows: Weigh into a one liter beaker 3.134 gm 1, 1, 3, 3-tetramethyl-1-phenoxy (polyethoxy) butane (n=polydisperse, average 9) and 12.912 gm 1, 1, 3, 3-tetramethyl-1-phenoxy(polyethoxy)n butane, 70% (n=polydisperse, average 30). Add about 800 ml of deionized or glass redistilled water and stir with a magnetic stirring bar until the detergents are dissolved. Add 9.534 gm sodium deoxycholate and continue stirring until dissolved. Then add 25.652 gm tetrasodium pyrophosphate (Na4 P2 O7.10 H2 O) and stir until the crystals dissolve. Add with stirring in approximately five equal portions a total of 231.51 gm of potassium chloride, allowing each portion to almost completely dissolve before adding the next. Stop the stirring when all of the KCl has dissolved. […]

porcine liver esterase = assay: as above; type: biochemical; details: for activation of porcine liver esterase by bile salt: vinyl omega-phenyl octanoate as substrate, sodium taurodeoxycholate zero to 25 mM, sodium cholate zero to 10 mM, sodium chenodeoxycholate zero to 15 mM
Text: as §1, §2
(2) Buffer Solution. While the method of preparation of the buffer solution is not critical, one method for forming it is as follows: Weigh into a one liter beaker 3.134 gm 1, 1, 3, 3-tetramethyl-1-phenoxy (polyethoxy) butane (n=polydisperse, average 9) and 12.912 gm 1, 1, 3, 3-tetramethyl-1-phenoxy(polyethoxy)n butane, 70% (n=polydisperse, average 30). Add about 800 ml of deionized or glass redistilled water and stir with a magnetic stirring bar until the detergents are dissolved. Add 9.534 gm sodium deoxycholate and continue stirring until dissolved. Then add 25.652 gm tetrasodium pyrophosphate (Na4 P2 O7.10 H2 O) and stir until the crystals dissolve. Add with stirring in approximately five equal portions a total of 231.51 gm of potassium chloride, allowing each portion to almost completely dissolve before adding the next. Stop the stirring when all of the KCl has dissolved. Add 1.15 gm bovine serum albumin by sprinkling on the liquid surface. When all of the BSA has dissolved, begin stirring again and add more water to bring the volume up to about 950 ml. Adjust the pH to 9.1 with dilute HCl solution. […] Quantitatively transfer the solution to a one liter volumetric flask and add water to the mark. […] After any endogenous acetaldehyde in the reagent has been reduced and the corresponding oxidation of NADH has slowed to the normal blank rate, the absorbance at 340 nm in a 1 cm light path will be approximately 1.5. […]

[2] = biological target: T2, crude human pancreas extract (human lipase) (Homo sapiens, UniProt P16233); assay: as above; type: biochemical; details: for activation of crude human pancreas extract by quaternary ammonium compound: in the absence of bile salts
T2 construct: vinyl ester hydrolysis coupled to ADH/NADH
T2 sequence (P16233 17-465): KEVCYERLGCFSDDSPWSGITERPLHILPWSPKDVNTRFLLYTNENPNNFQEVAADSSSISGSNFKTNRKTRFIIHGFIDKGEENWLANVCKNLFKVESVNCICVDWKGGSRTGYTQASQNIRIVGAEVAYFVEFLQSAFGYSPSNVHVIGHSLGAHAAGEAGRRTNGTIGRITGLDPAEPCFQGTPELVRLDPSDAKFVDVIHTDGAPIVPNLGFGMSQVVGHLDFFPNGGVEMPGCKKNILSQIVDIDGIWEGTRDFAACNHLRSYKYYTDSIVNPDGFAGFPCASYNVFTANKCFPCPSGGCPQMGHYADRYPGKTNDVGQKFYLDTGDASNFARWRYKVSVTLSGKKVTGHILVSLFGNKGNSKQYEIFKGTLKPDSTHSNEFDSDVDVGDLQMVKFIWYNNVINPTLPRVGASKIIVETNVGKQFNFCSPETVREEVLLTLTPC
Text: As a second step, the vinyl alcohol isomerizes to acetaldehyde. […] The acetaldehyde of reaction (2) may be detected by a variety of means known to the prior art. For example, enzymatic methods are illustrated below in reactions (3a) and (3b), and involve monitoring the disappearance (3a) or appearance (3b) of NADH by measuring its absorbance or fluorescence at suitable wavelengths. The velocity of reactions (3a) or (3b) may then be equated with reaction (1) when the components of the mixture are all in sufficient excess so that only the ester hydrolase activity is limiting. Chemical methods (3c) may include any nonenzymatic means for the quantitative analysis of acetaldehyde.
The useful range of CTAB concentrations for activation of porcine pancreatic lipase is from about 4 to 12 mM, but most preferred is from 7 to 9 mM. The useful range of CDMBAC concentrations for activation of porcine pancreatic lipase is from about 2 to 9 mM, but most preferred is about 5 to 9 mM. […] Sodium deoxycholate and CTAB are useful when used together in the ranges of zero to 25 mM and zero to 15 mM, respectively, but the preferred concentrations are 10 mM to 20 mM sodium deoxycholate and 4 mM to 10 mM CTAB. When deoxycholate and CDMBAC are used together for the activation of porcine pancreatic lipase the useful concentrations of deoxycholate are from zero to about 20 mM, but the preferred concentrations are 10 mM to 20 mM deoxycholate and 10 mM to 15 mM CDMBAC.
(2) Buffer Solution. While the method of preparation of the buffer solution is not critical, one method for forming it is as follows: Weigh into a one liter beaker 3.134 gm 1, 1, 3, 3-tetramethyl-1-phenoxy (polyethoxy) butane (n=polydisperse, average 9) and 12.912 gm 1, 1, 3, 3-tetramethyl-1-phenoxy(polyethoxy)n butane, 70% (n=polydisperse, average 30). Add about 800 ml of deionized or glass redistilled water and stir with a magnetic stirring bar until the detergents are dissolved. […] Quantitatively transfer the solution to a one liter volumetric flask and add water to the mark. […]

[3] = biological target: T1, porcine pancreatic lipase; details: same conditions as glycerol trioleate; cited from earlier work

Compound: C[C@H](CCC(=O)O)[C@H]1CC[C@H]2[C@@H]3[C@H](O)C[C@@H]4C[C@H](O)CC[C@]4(C)[C@H]3CC[C@]12C [sodium chenodeoxycholate]
activation of porcine pancreatic lipase by bile salt [1]: slightly activate
activation of porcine liver esterase by bile salt (porcine liver esterase): slightly activate

Compound: CCCCCCCCCCCCCCCC[N+](C)(C)C.[Br-] [CTAB, cetyltrimethyl ammonium bromide]
activation of porcine pancreatic lipase by quaternary ammonium compound [1]: Activation
activation of crude human pancreas extract by quaternary ammonium compound [2]: Activation

Compound: C[C@H](CCC(=O)O)[C@H]1CC[C@H]2[C@@H]3CC[C@@H]4C[C@H](O)CC[C@]4(C)[C@H]3C[C@H](O)[C@]12C [sodium deoxycholate]
activation of porcine liver esterase by sodium deoxycholate (porcine liver esterase; concentrations up to about 25 mM): only slightly activated
activation of human lipase by deoxycholate alone compared with the combination with CDMBAC ([2]; deoxycholate concentration about above 4 mM, in the absence of CDMBAC): activated to a much greater extent

Compound: C[C@H](CCC(=O)O)[C@H]1CC[C@H]2[C@@H]3[C@H](O)C[C@@H]4C[C@H](O)CC[C@]4(C)[C@H]3C[C@H](O)[C@]12C [sodium cholate]
activation of porcine pancreatic lipase by bile salt [1]: slightly activate
activation of porcine liver esterase by bile salt (porcine liver esterase): slightly activate

activation of porcine pancreatic lipase by bile salt [1]: slightly activate
activation of porcine liver esterase by bile salt (porcine liver esterase): slightly activate
Compound: C[C@H](CCC(=O)NCCS(=O)(=O)O)[C@H]1CC[C@H]2[C@@H]3CC[C@@H]4C[C@H](O)CC[C@]4(C)[C@H]3C[C@H](O)[C@]12C [Sodium taurodeoxycholate, sodium taurodeoxycholate]

Compound: CCCCCCCCCCCCCCCC[N+](C)(C)Cc1ccccc1.[Cl-] [CDMBAC, cetyldimethylbenzyl ammonium chloride]
activation of porcine pancreatic lipase by quaternary ammonium compound [1]: Activation
activation of crude human pancreas extract by quaternary ammonium compound [2]: Activation

Compound: C=COC(=O)CCCCCCC/C=C\CCCCCCCC [vinyl oleate]
effectiveness as substrate relative to glycerol trioleate [3]: 29.4%
